{"source": "patent EP1367044B1", "about": "“Calixarene-derivatives having anti-viral activity” (Aids Care Pharma Limited, priority 2002, dated 2003)", "key": {"[1]": {"test_system": "HIV", "conditions": "drug used on its own, patients; cited from earlier work"}, "[2]": {"conditions": "human, in vivo; cited from earlier work"}, "[3]": {"target": "gp120/CD4 binding (UniProt P01730+P03375)", "assay": "Test 1: inhibition of gp120/CD4 binding, recombinant proteins in an immunoassay format"}, "[4]": {"test_system": "wild-type HIV-1(111a)", "assay_type": "cell-based", "conditions": "CEM cells, 4 days incubation at 37°C, syncytium formation", "procedure": "The results shown in Table 1 for test 2 were obtained by testing cell cultures in accordance with the following procedure.\nCEM cells were suspended at approximately 250,000 cells per milliliter of culture medium and infected with wild-type HIV-1(111a) at approximately 100 times the 50% cell culture infective dose (CCID50) per milliliter. Then 100µl of the infected cell suspensions were added to 200 µl microtiter plate wells containing 100 µl of an appropriate dilution of the test compounds. After 4 days incubation at 37°C the cell cultures were microscopically examined for syncytium formation."}}}
{"compound": "O=C1Nc2ccc(Cl)cc2[C@@](C#CC2CC2)(C(F)(F)F)O1", "note": "[Efavirenz]", "values": [{"measurement": "REDUCTION IN VIRAL LOAD", "setting": "[1]", "value": "50-90%"}]}
{"compound": "CC(C)c1nc(CN(C)C(=O)N[C@H](C(=O)N[C@@H](Cc2ccccc2)C[C@H](O)[C@H](Cc2ccccc2)NC(=O)OCc2cncs2)C(C)C)cs1", "note": "[Ritonavir]", "values": [{"measurement": "SIDE EFFECTS", "setting": "[2]", "value": "diarrhoea nausea, vomiting, hepatitis, headache"}]}
{"compound": "dodecapotassium acetate of p-bromopyrogallol P-F-phenyl tetramer [AC-1 (1151c)]", "values": [{"measurement": "% inhibition of gp120/CD4 binding", "setting": "[3]; Conc um 0.39", "value": 48, "unit": "%"}, {"measurement": "% inhibition of gp120/CD4 binding", "setting": "[3]; Conc um 0.78", "value": 55, "unit": "%"}, {"measurement": "% inhibition of gp120/CD4 binding", "setting": "[3]; Conc um 1.56", "value": 62, "unit": "%"}, {"measurement": "% inhibition of gp120/CD4 binding", "setting": "[3]; Conc um 3.125", "value": 70, "unit": "%"}, {"measurement": "% inhibition of gp120/CD4 binding", "setting": "[3]; Conc um 6.25", "value": 82, "unit": "%"}, {"measurement": "% inhibition of gp120/CD4 binding", "setting": "[3]; Conc um 12.5", "value": 86, "unit": "%"}, {"measurement": "% inhibition of gp120/CD4 binding", "setting": "[3]; Conc um 25", "value": 91, "unit": "%"}, {"measurement": "% inhibition of gp120/CD4 binding", "setting": "[3]; Conc um 50", "value": 93, "unit": "%"}, {"measurement": "% inhibition of gp120/CD4 binding", "setting": "[3]; Conc um 100", "value": 96, "unit": "%"}, {"measurement": "EC50", "setting": "[3]; read-out: Test 1 EC50, concentration which reduces gp120 interaction with CD4 by 50%", "value": "500 to 1000", "unit": "nM"}, {"measurement": "Test 2 EC50", "setting": "[4]", "value": 4, "unit": "µg/mL"}]}
{"compound": "CC(C)Nc1cccnc1N1CCN(C(=O)c2cc3cc(NS(C)(=O)=O)ccc3[nH]2)CC1", "note": "[Delaviridine]", "values": [{"measurement": "REDUCTION IN VIRAL LOAD", "setting": "[1]", "value": "50-90%"}]}
{"compound": "O=c1[nH]cnc2c1ncn2[C@H]1CC[C@@H](CO)O1", "note": "[Didanosine (ddl), Didanosine]", "values": [{"measurement": "REDUCTION IN VIRAL LOAD", "setting": "[1]", "value": "50-90%"}]}
{"compound": "Nc1ccn([C@@H]2CS[C@H](CO)O2)c(=O)n1", "note": "[Lamivudine (3TC), Lamivudine]", "values": [{"measurement": "SIDE EFFECTS", "setting": "[2]", "value": "gastrointestinal disturbances, hair loss, myelosuppression, exacerbation of peripheral neuropathy"}]}
{"compound": "Cc1c(O)cccc1C(=O)N[C@@H](CSc1ccccc1)[C@H](O)CN1C[C@H]2CCCC[C@H]2C[C@H]1C(=O)NC(C)(C)C", "note": "[Nelfinavir (Viracept), Nelfinavir]", "values": [{"measurement": "SIDE EFFECTS", "setting": "[2]", "value": "diarrohea, nausea & vomiting"}]}
{"compound": "CC(C)(C)NC(=O)[C@@H]1C[C@@H]2CCCC[C@@H]2CN1C[C@@H](O)[C@H](Cc1ccccc1)NC(=O)[C@H](CC(N)=O)NC(=O)c1ccc2ccccc2n1", "note": "[Saquinavir]", "values": [{"measurement": "SIDE EFFECTS", "setting": "[2]", "value": "loose stools, nausea, headache"}]}
{"compound": "Cc1cn([C@H]2C=C[C@@H](CO)O2)c(=O)[nH]c1=O", "note": "[Stavudine (d4T), Stavudine]", "values": [{"measurement": "REDUCTION IN VIRAL LOAD", "setting": "[1]", "value": "50-90%"}]}
{"compound": "Nc1nc(NC2CC2)c2ncn([C@H]3C=C[C@@H](CO)C3)c2n1", "note": "[Abacavir]", "values": [{"measurement": "REDUCTION IN VIRAL LOAD", "setting": "[1]", "value": "50-90%"}]}
{"compound": "Nc1ccn([C@H]2CC[C@@H](CO)O2)c(=O)n1", "note": "[Zalcitabine (ddc), Zalcitabine]", "values": [{"measurement": "REDUCTION IN VIRAL LOAD", "setting": "[1]", "value": "50-90%"}]}
{"compound": "Cc1ccnc2c1NC(=O)c1cccnc1N2C1CC1", "note": "[Nevirapine]", "values": [{"measurement": "REDUCTION IN VIRAL LOAD", "setting": "[1]", "value": "50-90%"}]}
{"compound": "Cc1cn([C@H]2C[C@H](N=[N+]=[N-])[C@@H](CO)O2)c(=O)[nH]c1=O", "note": "[Zidovudine (AZT), Zidovudine]", "values": [{"measurement": "REDUCTION IN VIRAL LOAD", "setting": "[1]", "value": "50-90%"}, {"measurement": "SIDE EFFECTS", "setting": "[2]", "value": "myelosupression, myopathy, nausea, headache, anaemia"}]}
